Earlier results as cited in patent US20240401150A1, “PANCREATIC DUCTAL ADENOCARCINOMA SIGNATURES AND USES THEREOF” (The Broad Institute, Inc., priority 2022, published 2024).

How the values were obtained:
[1] = molecular target: CXCR4 (Homo sapiens, UniProt P61073); conditions: literature (ref 133)
[2] = system: intra-tumoral cytotoxic T cells; conditions: previously identified (refs 20, 61)

CXCR4, sequence (P61073 whole entry): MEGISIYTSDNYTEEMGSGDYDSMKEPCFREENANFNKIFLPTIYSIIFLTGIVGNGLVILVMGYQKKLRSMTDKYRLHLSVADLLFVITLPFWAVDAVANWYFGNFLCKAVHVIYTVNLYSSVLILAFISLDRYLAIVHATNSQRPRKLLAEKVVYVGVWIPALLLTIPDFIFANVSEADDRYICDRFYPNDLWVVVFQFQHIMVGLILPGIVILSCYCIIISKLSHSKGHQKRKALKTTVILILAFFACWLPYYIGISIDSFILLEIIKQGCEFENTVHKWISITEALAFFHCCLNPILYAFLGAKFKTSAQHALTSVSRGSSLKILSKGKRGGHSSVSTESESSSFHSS

Compound | effect of clinical inhibition of CXCR4 [1] | intra-tumoral cytotoxic T cell activity [2]
c1cc(CN2CCCNCCNCCCNCC2)ccc1CN1CCCNCCNCCCNCC1 [AMD3100] | integrated immune response^133 | –
CCCCc1nc(Cl)c(CO)n1Cc1ccc(-c2ccccc2-c2nn[nH]n2)cc1 [losartan] | – | increase
